Measured values: patent US20090117593A1, “T. Cruzi-derived neurotrophic agents and methods of use therefor” (Tufts University, priority 2006, published 2009)
“Also recorded” adds a separate entry of the source.

How the values were obtained:
IL-6 [1] = test: IL-6 secretion by PBMC (ELISA); assay type: cell-based, human; conditions: 24 hours
Description: (§1) Primary cultures of human intestinal microvascular endothelial cells (HIMEC) isolated from normal jejunal mucosa/submucosal tissue were prepared as described (Strong et al., Gastroenterology 114:1244-1256 (1998)). The HIMEC were cultured in fibronectin-coated plasticware in MCDB medium (Sigma) supplemented with 20% FBS, 90 μg/ml heparin and 50 μg/ml endothelial cell growth factor (Sigma). T-24 cells (ATCC Accession No. HTB-4) were cultured in M199 medium supplemented with 10% FBS. PBMC were purified by Ficoll-Paque gradient as described (Current Protocols in Immunology, pp 7.1.1-7.1.2). Vero cells (ATCC Accession No. CCL-81) were grown in RPMI medium with 5% Nu serum and infected with the Silvio X-10/4 of T. cruzi as described previously (Chuenkova et al., J. Exp. Med. 181:1693-1703 (1995)).
Endothelial cells and T-24 cells were plated on 24-well plates at a density of 1×10^3 cells/well, while peripheral blood mononuclear cells (PBMC) were plated in the similar wells at 1×10^6/well. Triplicat cultures of cells were incubated test agents for a predetermined amount of time. […] Cytokines and chemokines released in the culture supernatants were measured by ELISA assay following the instructions of the manufacturer (Endogen). The cytokines tested were IL-1β, IL-4, IL-8, […], IL-12, IFN-γ, TNF-α, and the chemokines RANTES and MCP-1. Negative controls were cells incubated in medium containing polymixin B at 10 μg/ml, and positive controls were cells incubated with bacterial LPS at the low ng/ml range (for PBMC or HIMEC) or in the μg/ml range for carcinoma T-24 cells. In some experiments, IL-1β or TNFα were used as positive control for cytokine release.
TR peptides (Table 2) were synthesized at the Tufts Synthesis Facility (Boston, Mass.). Each peptide was purified by HPLC, and the number of amino acids and molecular weight of each peptide verified by mass spectrometry. Peptides were dissolved in growth medium (10% FCS in RPMI) and added at various concentrations to 1×10^6 PBMC/well in 24-well plates. After 24 hours, IL-6 was assayed by ELISA in the conditioned supernatants.

[2] = system: PC12 cells or Schwann cells; test: Inhibition of apoptosis of PC12 cells or Schwann cells by synthetic peptides; assay type: cell-based
PC12 cells [3] = assay type: cell-based; conditions: serum-free RPMI/0.2% BSA, collagen coated dishes, 16-17 hours
PC12 cells [4] = test: Protection of PC12 cells from apoptosis induced by trophic factor withdrawal (DAPI, TUNEL); assay type: cell-based; conditions: serum-free RPMI-1640/0.2% BSA, 17 hours, DAPI or TUNEL
From the text: PC12 cells were obtained from ATCC (Manassas, Va. (Accession No. CRL-1721)) and cultured on collagen-coated dishes in RPMI 1640 supplemented with 10% horse serum and 5% fetal bovine serum (Greene, L., and Tishler, A., Proc. Natl. Acad. Sci. USA, 73:2424-2428 (1976)). For differentiation and survival experiments, cells were washed three times in serum-free RPMI/0.2% BSA, plated in the same medium in collagen-coated plastic dishes at 2×10^5/ml, without and with growth factors, TS, recombinant proteins, synthetic peptides, for the time and concentrations indicated in the Figures.
Cell staining with 4,6-diamino-2-phenylindole (DAPI). Cells were fixed with 4% formaldehyde in PBS for 5 minutes, washed with PBS, stained with 10 μg/ml DAPI (Sigma) for 2 minutes, washed with PBS, and visualized under UV light using a fluorescent microscope. About 300-400 cells were examined under the microscope to determine the percentage of apoptotic cells.
Cell DNA nick end labeling (TUNEL) (Gavrieli, Y. et al., J. Cell. Biol., 119:493-501 (1992)) assay was performed using a kit purchased from Boehringer Mannheim as described by the manufacturer.
Protection against apoptosis of PC12 cells in serum-free medium containing a test agent (agent N) (e.g., protection induced by TS, TS fragments, NGF or other growth factors), was calculated by the formula: 100%−[(apoptosis(%) of cells kept in RPMI containing test agent N÷apoptosis (%) of cells kept in RPMI)×100%]. Testing the effect of Wortmannin (Sigma) and LY294002 (Sigma) in inhibiting the neuroprotection of TS was performed following the protocol described by others (Yao, R., and Cooper, G., Science, 267:2003-2006 (1995); D'Mello, et al., J. Neurosci., 17:1548-1560 (1997)). In brief, PC12 cells were switched from growth medium to RPMI without and with TS or various other growth factors. After 24 hours, Wortmannin and LY294002 were added to the cultures. After another 24 hours, cells were examined for apoptosis by the DAPI assay, as above.

IL-6 [5] = test: IL-6 secretion by normal human neutrophils; assay type: cell-based
IL-6 [6] = test: IL-6 secretion by HIMEC (ELISA); assay type: cell-based, human; conditions: 24 hours
Description: as §1
Endothelial cells and T-24 cells were plated on 24-well plates at a density of 1×10^3 cells/well, while peripheral blood mononuclear cells (PBMC) were plated in the similar wells at 1×10^6/well. Triplicat cultures of cells were incubated test agents for a predetermined amount of time. […] Cytokines and chemokines released in the culture supernatants were measured by ELISA assay following the instructions of the manufacturer (Endogen). The cytokines tested were IL-1β, IL-4, IL-8, IL-1, IL-12, IFN-γ, TNF-α, and the chemokines RANTES and MCP-1. […]

PC12^TrkA cells = test: Survival of PC12^TrkA cells in serum-free medium (MTT, DAPI); assay type: cell-based; conditions: peptides 10 μM, PDNF 500 ng/ml, NGF 30 ng/ml, 48 hours to 5 days
Description: PC12^nnr5 and PC12^TrkA cells were grown in RPMI with 10% FCS and 5% horse serum as described earlier (Green et al., J. Cell Biol. 102:830-843 (1986); Chuenkova and Pereira, Mol. Biol. Cell 11: 1487-1498 (2000)). Two approaches were used to study neurite extension: 1) Plating cells (1×10^5 cells/ml) on plastic wells (LABTECH 16-well slides, Nalge Nunc International, Naperville, Ill.) coated with synthetic peptides (100 μg/ml water, 4° C., overnight) or rat tail collagen (1 mg/ml PBS, 4° C., overnight). 2) Adding peptides in solution to cells plated on uncoated substratum. Cells were grown in 1% FCS-containing RPMI for 72 hours, and reacted with 0.5 mg/ml MTT (3-[4,5-dimethylthiazol-2-yl]-2,5-diphenyltetrazolium bromide) (SIGMA, St. Louis, Mo.) in serum-free medium for 1 hour at 37° C. Light microscopy was used to visualize viable cells (i.e., containing reduced insoluble formazan) with or without extended neurites (>5 μm in length). Cell viability was also determined using the CELLTITER 96 assay (Promega, Madison, Wis.) as follows: Cells, plated at 2×10^5/ml, were treated with peptides in serum-free medium for different times and exposed to CELLTITER 96 Aqueous One Solution for 1 hour at 37° C. 2) Apoptotic cells were identified by staining with DAPI (250 ng/ml) (SIGMA) 48 hours after cells were exposed to serum-free medium with or without additives in solution, as described earlier (Chuenkova and Pereira, Mol. Biol. Cell 11:1487-1498 (2000)). […]

Erk1/2 = Erk1/2 phosphorylation in PC12 cells; assay type: cell-based; conditions: 5 minutes; control peptides 10 μM
Description: Activation state of TrkA, Erk1/2 and Akt kinases and transcription factor CREB was analyzed by assessing phosphorylation by Western blot with appropriate phospho-specific antibodies. For this, cells were plated in complete medium at a density of 3×10^5 cells/ml overnight on 6-well plates (BECTON DICKINSON LABWARE, Franklin Lakes, N.J.). The medium was changed to serum-free medium and the cells cultured for an additional 24 hours to reduce background phosphorylation. […] Antibody reaction was visualized by horseradish peroxidase (HRP)-conjugated secondary antibody and enhanced chemiluminescence kit (ECL). Some blots were stripped in appropriate buffer (50 mM Tris HCl, pH 7.8, 2% SDS, 1% β-mercaptoethanol) at 50° C. for 60 minutes and re-probed with p42/44MAPK, Akt or CREB antibody to ensure equal loading of proteins. For immunoprecipitation experiments, cell lysates were pre-adsorbed on protein G-Sepharose for 1 hour at 4° C. and after brief centrifugation supernatants were incubated with anti-TrkA antibody for 24 hours at 4° C. with gentle rocking. Formed immunocomplexes were captured on protein G-Sepharose, eluted with SDS-PAGE sample buffer and analyzed by immunoblotting with antibody against phospho-TrkA receptor.

[7] = system: primary cultures of rat Schwann cells; conditions: cited from earlier work

| Substance | IL-6 secretion by PBMC (IL-6 [1]) | effect of PI-3 kinase inhibitor LY294002 on the apoptosis suppressing effect of the peptide [2] | suppression of apoptosis of PC12 cells or Schwann cells [2] | neurite outgrowth in PC12 cells (PC12 cells [3]) | other results |
| --- | --- | --- | --- | --- | --- |
| DSSAHGAPSTPA [peptide TR1] | less active |  |  |  |  |
| DSSAHGAPSTPADSSAHGTPSTPV [TR2] | less active |  |  |  |  |
| DSSAHGAPSTPADSSAHGTPSTPVDSSAHGTPSTPA [TR3] | less active |  |  |  |  |
| DSSAHGAPSTPADSSAHGTPSTPVDSSAHGTPSTPADSSAHSTPSTPA [TR4] | active in promoting IL-6 release |  |  |  |  |
| DSSAHGAPSTPADSSAHGTPSTPVDSSAHGTPSTPADSSAHSTPSTPADSSAHSTPSTPA [TR5] | active in promoting IL-6 release |  |  |  |  |
| GNASQNYWEDAYRC [CYN2] |  | inhibited by the PI-3 kinase inhibitor LY294002 | suppressed apoptosis but was less active |  |  |
| QPLRRQRVVVVPLSPRLVLLAFCRQRLPLKRMGGSYRCVNASTAN [peptide C44] |  | inhibited by the PI-3 kinase inhibitor LY294002 | potent suppressors of apoptosis | had direct neurotrophic activity; also recorded: induce dose dependent outgrowth of neurites | protection of PC12 cells from apoptosis induced by trophic factor withdrawal (PC12 cells [4]): protected PC12 cells from apoptosis |
| RQRLPKRMGGSYRC [peptide C14] |  | inhibited by the PI-3 kinase inhibitor LY294002 | potent suppressors of apoptosis | had direct neurotrophic activity; also recorded: induce dose dependent outgrowth of neurites | protection of PC12 cells from apoptosis induced by trophic factor withdrawal (PC12 cells [4]): protected PC12 cells from apoptosis |
| RQRLPKRMGGSYRCVNASTAH [CFN1] |  | inhibited by the PI-3 kinase inhibitor LY294002 | potent suppressors of apoptosis | had direct neurotrophic activity |  |
| TNF-α |  |  |  |  | IL-6 production by normal human neutrophils (IL-6 [5]): did elicit secretion of IL-6 |
| VCNA: neuraminidase from Vibrio cholera [reference compound] |  |  |  | did not induce neurite outgrowth; also recorded: does not induce neurite outgrowth | IL-6 secretion by HIMEC (IL-6 [6]): did not stimulate detectable IL-6 secretion; protection of PC12 cells from apoptosis induced by trophic factor withdrawal (PC12 cells [4]): did not |
| VNASTAN [peptide CYFN] |  | inhibited by the PI-3 kinase inhibitor LY294002 | did not inhibit apoptosis |  | survival of PC12^TrkA cells in serum-free medium (PC12^TrkA cells): did not significantly promoted cell survival; Erk1/2 phosphorylation in PC12 cells (Erk1/2): did not activate Erk |
| YSVDDGETWE [peptide B2] |  |  | did not inhibit apoptosis | did not induce neurite outgrowth; also recorded: did not promote neurite outgrowth | survival of PC12^TrkA cells in serum-free medium (PC12^TrkA cells; listed as BR): inactive; also recorded: did not significantly promoted cell survival |
| lysophosphatidic acid |  |  |  |  | dose reported to be active as Schwann cell survival factor [7]: ≥ 10 nM |
